Some results are limits rather than exact numbers.

These results are taken from patent US20260184710A1, “CASITAS B-LINEAGE LYMPHOMA PROTOONCOGENE B (CBL-B) DEGRADING COMPOUNDS AND ASSOCIATED METHODS OF USE” (Arvinas Operations, Inc., priority 2022, published 2026).

Assay [1] deals with T1, Cbl-b (Homo sapiens, UniProt Q13191).
T1 construct: Cbl-b-HiBit KI Jurkat Cells were purchased from Promega; host or cells: Cbl-b-HiBiT knock-in Jurkat cells
The assay can be described thus: Cbl-b Degradation Method A (FACS, anti-Cbl-b antibody staining). Conditions: Cbl-b-HiBit KI Jurkat Cells, incubated at least 20 hours; for DC50: half maximal degradation, read-out: Cbl-b Degredation Method A IC50; for Dmax: Jurkat, maximum degradation observed, read-out: Cbl-b Degredation Method A Dmax (%). The class given is cell-based. The essentials:
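Readout is flow cytometry of fixed, permeabilized cells immunostained for Cbl-b (primary 1:200, AF488 secondary). Cells were Cbl-b-HiBit knock-in Jurkat, exposed to compound ≥20 h at 37 °C; half-maximal degradation concentration (DC50) and maximal degradation (Dmax) calculated relative to control.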
(The HiBiT peptide binds its large partner to form an active luciferase.)

Assay [2] deals with T1, Cbl-b. The assay can be described thus: Cbl-b Degradation Method B (Nano-Glo HiBiT lytic detection). The class given is cell-based. Conditions: Cbl-b-HiBit KI Jurkat Cells, incubated at least 6-24 hours; for DC50: half maximal degradation, read-out: Cbl-b Degredation Method B IC50; for Cbl-b Degredation Method B Dmax (%): maximum degradation observed. The essentials:
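An 11-point, 3-fold compound dilution was applied for 6-24 hours to Jurkat cells carrying HiBiT-tagged endogenous Cbl-b. Lytic HiBiT luminescence quantified residual protein. Outputs are DC50 and Dmax relative to DMSO control.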

T1 sequence (Q13191 whole entry): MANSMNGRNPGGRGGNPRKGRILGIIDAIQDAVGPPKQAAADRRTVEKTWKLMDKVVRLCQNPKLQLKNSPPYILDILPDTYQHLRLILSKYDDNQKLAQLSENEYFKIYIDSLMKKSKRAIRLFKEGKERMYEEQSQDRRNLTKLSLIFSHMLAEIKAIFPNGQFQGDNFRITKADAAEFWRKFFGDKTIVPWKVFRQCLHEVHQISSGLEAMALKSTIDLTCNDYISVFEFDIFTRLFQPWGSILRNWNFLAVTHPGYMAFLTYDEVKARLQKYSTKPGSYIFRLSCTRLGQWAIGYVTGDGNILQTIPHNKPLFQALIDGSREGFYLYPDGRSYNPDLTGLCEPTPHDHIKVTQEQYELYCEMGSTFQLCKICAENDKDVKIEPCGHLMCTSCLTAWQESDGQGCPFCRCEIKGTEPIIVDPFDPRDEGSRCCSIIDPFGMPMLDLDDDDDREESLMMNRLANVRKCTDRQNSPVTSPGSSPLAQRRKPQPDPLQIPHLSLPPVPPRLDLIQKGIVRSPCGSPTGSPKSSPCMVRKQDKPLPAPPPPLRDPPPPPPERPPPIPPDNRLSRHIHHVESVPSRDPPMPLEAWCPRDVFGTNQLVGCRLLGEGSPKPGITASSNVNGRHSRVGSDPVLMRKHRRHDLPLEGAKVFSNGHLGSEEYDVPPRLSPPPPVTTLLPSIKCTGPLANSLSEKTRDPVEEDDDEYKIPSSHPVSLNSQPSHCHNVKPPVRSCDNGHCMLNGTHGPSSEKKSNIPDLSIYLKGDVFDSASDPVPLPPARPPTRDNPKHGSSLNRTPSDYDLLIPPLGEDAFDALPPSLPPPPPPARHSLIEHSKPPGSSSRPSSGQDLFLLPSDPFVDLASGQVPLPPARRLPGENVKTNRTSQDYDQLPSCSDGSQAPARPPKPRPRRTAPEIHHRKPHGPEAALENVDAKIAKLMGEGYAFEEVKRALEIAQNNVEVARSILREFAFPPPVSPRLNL

Consider `Cn1cnnc1C[C@]1(c2cccc(N3Cc4c(cc(CN5CCN(C[C@H]6CC[C@H](OC7CCN(c8cccc9c8n(C)c(=O)n9C8CCC(=O)NC8=O)CC7)CC6)CC5(C)C)cc4C(F)(F)F)C3=O)c2)C[C@H](C#N)C1` (stereo partly shown) [Example 301, (1r,3r)-3-(3-{6-[(2,2-dimethyl-4-{[(1r,4r)-4-({1-[1-(2,6-dioxopiperidin-3-yl)-3-methyl-2-oxo-2,3-dihydro-1H-1,3-benzodiazol-4-yl]piperidin-4-yl}oxy)cyclohexyl]methyl}piperazin-1-yl)methyl]-1-oxo-4-(trifluoromethyl)-2,3-dihydro-1H-isoindol-2-yl}phenyl)-3-[(4-methyl-4H-1,2,4-triazol-3-yl)methyl]cyclobutane-1-carbonitrile], for which, at Cbl-b [1], the DC50 lay within 50 to 500 nM and the Dmax is more than 70%. Further, at Cbl-b [2], the DC50 was less than 5 nM and the “Cbl-b Degredation Method B Dmax (%)” value is “C (C ≤ 35)”.

For the compound `CC(C)n1c(=O)n(C2CCC(=O)NC2=O)c2cccc(N3CCC(O[C@H]4CC[C@H](CN5CCN(Cc6cc7c(c(C(F)(F)F)c6)CN(c6cccc([C@]8(Cc9nncn9C)C[C@@H](C#N)C8)c6)C7=O)C(C)(C)C5)CC4)CC3)c21` (stereo partly shown) [Example 302, (1r,3r)-3-(3-{6-[(2,2-dimethyl-4-{[(1r,4r)-4-({1-[1-(2,6-dioxopiperidin-3-yl)-2-oxo-3-(propan-2-yl)-2,3-dihydro-1H-1,3-benzodiazol-4-yl]piperidin-4-yl}oxy)cyclohexyl]methyl}piperazin-1-yl)methyl]-1-oxo-4-(trifluoromethyl)-2,3-dihydro-1H-isoindol-2-yl}phenyl)-3-[(4-methyl-4H-1,2,4-triazol-3-yl)methyl]cyclobutane-1-carbonitrile], on Cbl-b [1], the DC50 is 50 to 500 nM and the Dmax fell in the range of 35 to 70%. At Cbl-b [2], the DC50 lay in the range of 5 to 50 nM and the “Cbl-b Degredation Method B Dmax (%)” value is recorded as “C (C ≤ 35)”.

In the case of `CC1c2nc(N3CCC(CN4CCC(CN5CCN(Cc6cc7c(c(C(F)(F)F)c6)CN(c6cccc([C@]8(Cc9nncn9C)C[C@@H](C#N)C8)c6)C7=O)C(C)(C)C5)CC4)CC3)ccc2C(=O)N1C1CCC(=O)NC1=O` (stereo partly shown) [Example 303, (1r,3r)-3-(3-{6-[(4-{[1-({1-[6-(2,6-dioxopiperidin-3-yl)-7-methyl-5-oxo-5H,6H,7H-pyrrolo[3,4-b]pyridin-2-yl]piperidin-4-yl}methyl)piperidin-4-yl]methyl}-2,2-dimethylpiperazin-1-yl)methyl]-1-oxo-4-(trifluoromethyl)-2,3-dihydro-1H-isoindol-2-yl}phenyl)-3-[(4-methyl-4H-1,2,4-triazol-3-yl)methyl]cyclobutane-1-carbonitrile], on Cbl-b [1], the DC50 lay within 5 to 50 nM and the greatest degradation seen (Dmax) was 35 to 70%. Moreover, on Cbl-b [2], the DC50 was less than 5 nM and the “Cbl-b Degredation Method B Dmax (%)” value is “C (C ≤ 35)”.

On to `CC1c2nc(N3CCC(CN4CCN(CC5CCN(Cc6cc7c(c(C(F)(F)F)c6)CN(c6cccc([C@]8(Cc9nncn9C)C[C@@H](C#N)C8)c6)C7=O)C6(CC6)C5)CC4)CC3)ccc2C(=O)N1C1CCC(=O)NC1=O` (stereo partly shown) [Example 310, (1r,3r)-3-(3-{6-[(7-{[4-({1-[6-(2,6-dioxopiperidin-3-yl)-7-methyl-5-oxo-5H,6H,7H-pyrrolo[3,4-b]pyridin-2-yl]piperidin-4-yl}methyl)piperazin-1-yl]methyl}-4-azaspiro[2.5]octan-4-yl)methyl]-1-oxo-4-(trifluoromethyl)-2,3-dihydro-1H-isoindol-2-yl}phenyl)-3-[(4-methyl-4H-1,2,4-triazol-3-yl)methyl]cyclobutane-1-carbonitrile], for which, on Cbl-b [1], the DC50 lay in the range of 5 to 50 nM and the Dmax was in the range of 35 to 70%. Further, at Cbl-b [2], the DC50 was in the range of 5 to 50 nM and the “Cbl-b Degredation Method B Dmax (%)” value is on record as “C (C ≤ 35)”.

Regarding `Cn1cnnc1CC1(c2cccc(N3Cc4c(cc(CN5CCN(C[C@H]6CC[C@H](OC7CCN(c8cccc9c8n(C8CC8)c(=O)n9C8CCC(=O)NC8=O)CC7)CC6)CC5(C)C)cc4C(F)(F)F)C3=O)c2)CC(C#N)C1` (stereo partly shown) [Example 312, (1r**,3r**)-3-(3-{6-[(2,2-dimethyl-4-{[(1r*,4r*)-4-({1-[3-cyclopropyl-1-(2,6-dioxopiperidin-3-yl)-2-oxo-2,3-dihydro-1H-1,3-benzodiazol-4-yl]piperidin-4-yl}oxy)cyclohexyl]methyl}piperazin-1-yl)methyl]-1-oxo-4-(trifluoromethyl)-2,3-dihydro-1H-isoindol-2-yl}phenyl)-3-[(4-methyl-4H-1,2,4-triazol-3-yl)methyl]cyclobutane-1-carbonitrile], at Cbl-b [1], the DC50 lay in the range of 50 to 500 nM and the Dmax is 35 to 70%. Further, at Cbl-b [2], the DC50 is less than 5 nM and the “Cbl-b Degredation Method B Dmax (%)” value is reported as “C (C ≤ 35)”.

Turning to `Cn1cnnc1CC1(c2cccc(N3Cc4c(cc(CN5CCN(C[C@H]6CC[C@H](OC7CCN(c8cccc9c8ncn9C8CCC(=O)NC8=O)CC7)CC6)CC5(C)C)cc4C(F)(F)F)C3=O)c2)CC(C#N)C1` (stereo partly shown) [Example 314, (1r**,3r**)-3-(3-{6-[(2,2-dimethyl-4-{[(1r*,4r*)-4-({1-[1-(2,6-dioxopiperidin-3-yl)-1H-1,3-benzodiazol-4-yl]piperidin-4-yl}oxy)cyclohexyl]methyl}piperazin-1-yl)methyl]-1-oxo-4-(trifluoromethyl)-2,3-dihydro-1H-isoindol-2-yl}phenyl)-3-[(4-methyl-4H-1,2,4-triazol-3-yl)methyl]cyclobutane-1-carbonitrile], on Cbl-b [1], the DC50 was 5 to 50 nM and the maximal degradation (Dmax) was in the range of 35 to 70%. In addition, at Cbl-b [2], the DC50 lay within 50 to 500 nM and the “Cbl-b Degredation Method B Dmax (%)” value is listed as “B (35 < B < 70)”.

Turning to `Cn1cnnc1CC1(c2cccc(N3Cc4c(cc(CN5CCN(C[C@H]6CC[C@H](OC7CCN(c8cccc9c8CC(=O)N9C8CCC(=O)NC8=O)CC7)CC6)CC5(C)C)cc4C(F)(F)F)C3=O)c2)CC(C#N)C1` (stereo partly shown) [Example 315, (1r**,3r**)-3-(3-{6-[(2,2-dimethyl-4-{[(1r*,4r*)-4-({1-[1-(2,6-dioxopiperidin-3-yl)-2-oxo-2,3-dihydro-1H-indol-4-yl]piperidin-4-yl}oxy)cyclohexyl]methyl}piperazin-1-yl)methyl]-1-oxo-4-(trifluoromethyl)-2,3-dihydro-1H-isoindol-2-yl}phenyl)-3-[(4-methyl-4H-1,2,4-triazol-3-yl)methyl]cyclobutane-1-carbonitrile], at Cbl-b [1], the DC50 lay in the range of 50 to 500 nM and the Dmax was in the range of 35 to 70%. For the same compound, on Cbl-b [2], the DC50 is less than 5 nM and the “Cbl-b Degredation Method B Dmax (%)” value is “C (C ≤ 35)”.

As to `Cn1cnnc1CC1(c2cccc(N3Cc4c(cc(CN5CCN(C[C@H]6CC[C@H](OC7CCN(c8ccc9c(c8)CC(=O)N9C8CCC(=O)NC8=O)CC7)CC6)CC5(C)C)cc4C(F)(F)F)C3=O)c2)CC(C#N)C1` (stereo partly shown) [Example 316, (1r**,3r**)-3-(3-{6-[(2,2-dimethyl-4-{[(1r*,4r*)-4-({1-[1-(2,6-dioxopiperidin-3-yl)-2-oxo-2,3-dihydro-1H-indol-5-yl]piperidin-4-yl}oxy)cyclohexyl]methyl}piperazin-1-yl)methyl]-1-oxo-4-(trifluoromethyl)-2,3-dihydro-1H-isoindol-2-yl}phenyl)-3-[(4-methyl-4H-1,2,4-triazol-3-yl)methyl]cyclobutane-1-carbonitrile], at Cbl-b [1], the DC50 fell in the range of 50 to 500 nM and the Dmax was more than 70%. Also, at Cbl-b [2], the DC50 was less than 5 nM and the “Cbl-b Degredation Method B Dmax (%)” value is “C (C ≤ 35)”.

Turning to `CC(C)n1c(=O)n(C2CCC(=O)NC2=O)c2cccc(N3CCC(O[C@H]4CC[C@H](CN5CCC6(CCN(Cc7cc8c(c(C(F)(F)F)c7)CN(c7cccc([C@]9(Cc%10nncn%10C)C[C@@H](C#N)C9)c7)C8=O)CC6)CC5)CC4)CC3)c21` (stereo partly shown) [Example 317, (1r,3r)-3-[(4-methyl-4H-1,2,4-triazol-3-yl)methyl]-3-(3-{1-oxo-6-[(9-{[(1r,4r)-4-({1-[1-(2,6-dioxopiperidin-3-yl)-2-oxo-3-(propan-2-yl)-2,3-dihydro-1H-1,3-benzodiazol-4-yl]piperidin-4-yl}oxy)cyclohexyl]methyl}-3,9-diazaspiro[5.5]undecan-3-yl)methyl]-4-(trifluoromethyl)-2,3-dihydro-1H-isoindol-2-yl}phenyl)cyclobutane-1-carbonitrile], on Cbl-b [1], the DC50 fell in the range of 50 to 500 nM and the Dmax lay within 35 to 70%. Moreover, at Cbl-b [2], the DC50 is less than 5 nM and the “Cbl-b Degredation Method B Dmax (%)” value is “C (C ≤ 35)”.

As to `CC(C)n1c(=O)n(C2CCC(=O)NC2=O)c2ccc(N3CCC(O[C@H]4CC[C@H](CN5CCN(Cc6cc7c(c(C(F)(F)F)c6)CN(c6cccc(C8(Cc9nncn9C)CC(C#N)C8)c6)C7=O)C(C)(C)C5)CC4)CC3)c(F)c21` (stereo partly shown) [Example 318, (1r**,3r**)-3-(3-{6-[(2,2-dimethyl-4-{[(1r*,4r*)-4-({1-[1-(2,6-dioxopiperidin-3-yl)-4-fluoro-2-oxo-3-(propan-2-yl)-2,3-dihydro-1H-1,3-benzodiazol-5-yl]piperidin-4-yl}oxy)cyclohexyl]methyl}piperazin-1-yl)methyl]-1-oxo-4-(trifluoromethyl)-2,3-dihydro-1H-isoindol-2-yl}phenyl)-3-[(4-methyl-4H-1,2,4-triazol-3-yl)methyl]cyclobutane-1-carbonitrile], on Cbl-b [1], the DC50 lay within 50 to 500 nM and the maximal degradation (Dmax) lay within 35 to 70%. On Cbl-b [2], the DC50 was less than 5 nM and the “Cbl-b Degredation Method B Dmax (%)” value is listed as “C (C ≤ 35)”.

By Dmax is commonly meant the greatest extent of degradation seen.
